# Experimental data: US20240247048A1 (EMORY UNIVERSITY, priority 2021, published 2024)
# Entries after “also recorded” stand apart in the source; their conditions may differ.
# Experiments:
# [1] = system: luciferase+ mouse T cells; assay: proliferation of luciferase+ mouse T cells in vitro (plate-bound anti-CD3, luminescence); type: cell-based; details: 96 hours; for lowest concentration of peptide that led to maximal luminescence: luc+ T cell proliferation, plate-bound anti-CD3; for luc+ T cell proliferation: relative luminescence, quadruplicate wells, plate-bound anti-CD3, daily addition of peptide, at the concentration in brackets
# Excerpt: (§1) VIP-related peptides tested in silico for predicted binding affinities to human VPAC1 and VPAC2 (Creative Biolabs). Docking scores show predicted free energy change associated with peptide binding. Note that a greater negative score is predicted to be associated with higher binding affinity. Based upon an initial screen of 300 peptides for binding affinity to VPAC1 and screening a subset of 100 peptides for binding affinity to VPAC2, a select group of peptides were synthesized and tested for their ability to stimulate proliferation of luciferase+ mouse T cells in vitro. The lowest concentration of peptide that led to maximal luminescence is shown. Proliferation data represents the relative level of luminescence from quadruplicate wells containing 1×10E5 T cells/well in a 96 well tissue culture plate stimulated for 96 hours with plate-bound anti-CD3 antibodies. Confirmatory in vivo testing of select peptides was then performed based upon their ability to induce autologous anti-leukemia responses in C57Bl/6 mice that had been previously injected with 1×10E6 C1498 acute myeloid leukemia cells. Leukemia cells were injected on day 0, 10 ug peptide was injected s.c. daily on days 6-12. The predicted binding affinity to VPAC1 and/or VPAC2 was associated with enhanced activity in stimulating mouse T cell proliferation and anti-leukemia activity in mice.
# [2] = system: C1498 acute myeloid leukemia cells; assay: survival of mice engrafted with C1498 acute myeloid leukemia; type: in vivo, mouse; design: percentage of survival: concentration or dose not given beside the values; details: for Median survival time / Percentage alive day 60: 1 x 10E6 C1498 i.v. on day 0, 10 ug peptide s.c. daily on days 6-12
# Procedure: B6 (CD45.2, H-2K^b) mice were administered C1498 1×10^6/mouse through tail vein. […] Survival of the mice was observed daily. Data were pooled from 3 replicated experiments.
# B6 (CD45.2, H-2K^b) mice were administered C1498 1×10^6/mouse through tail vein. […] Survival of the mice was observed daily. Survival of the mice were pooled from 3 replicated experiments and analyzed by log-rank test compared with the survival of mice treated with scrambled peptide.
# B6 SJL (CD45.1, H-2K^b) mice were administered C1498 (CD45.2 H-2K^b) 1×10^6/mouse through tail vein. […] The mice were bled weekly from the submandibular vein, starting from day 6, prior to the administration of peptides. Antibodies to CD45.2 identified myeloid leukemia cells and antibodies to CD45.1 identified murine leukocytes of the host.
# as §1
# To test the ability of the disclosed VIP-R antagonists to effect survival to acute myeloid leukemia survival, B6 (CD45.2, H-2K^b) mice were administered C1498 1×10^6/mouse through tail vein. […] Survival of the mice was observed daily.
# [3] = toxicity in immunologically naive C57BL/6 mice; type: in vivo; details: for H&E staining of colon and lung tissue: FIG. 29c-29d; for overall survival, activity levels or weight of mice: daily s.c. for 10 days, same dose as anti-cancer protocol, FIG. 29a; for toxicity in C57BL/6 mice: daily s.c. injection for 10 days, analyzed day 11, FIG. 29
# Excerpt: C57BL/6 mice received daily subcutaneous injection of ANT008 or ANT308 for 10 days (n=5 per group) and analyzed for evidence of toxicity on day 11. (FIG. 29A) Body weight in grams during the duration of drug administration; (FIG. 29B) Number of WBCs, RBCs and platelets in blood as per complete blood count (left) proportions of T cells, B cells, NK cells, DCs and MDSCs in spleen as identified by flow cytometry (right) are plotted. Representative H&E stained sections of (FIG. 29C) colon (top), lungs (bottom) and (FIG. 29D) liver are shown. Arrows in FIG. 29D show the focal hepatic lesions in liver. […] C57BL/6 mice received daily subcutaneous injection of 30 ug of ANT308 (n=6) or a combination of 30 ug of ANT308 daily along with 200 ug of anti-PD1 every 3 days (n=6), for a duration of 4 days. Mice receiving scrambled peptide and isotype IgG served as control (n=4). (FIG. 29E) Weight of the mice, (FIG. 29F) complete blood count (CBC) and (FIG. 29G) serum chemistries after 4 days of treatment are plotted. P values in FIGS. 29B, 29E, 29F, and 29G were calculated by ANOVA followed by Dunnett's post-test. Error bars represent mean and standard deviation. *p<0.05, **p<0.01.
# To evaluate the effect of VIP-R-mediated signaling inhibition on the growth of PDAC tumors in vivo, three different murine PDAC tumors (KPC-Luc, MT5 and Panc02) were implanted in syngeneic immunocompetent C57BL/6 mice. After tumors were palpable, mice were randomly allocated to treatment with VIP-R antagonists and/or anti-PD-1 monoclonal antibody, or control groups that received scrambled peptide or isotype-matched IgG. […] In addition to the antitumor efficacy, the safety of VIP-R antagonists in immunologically naïve mice was confirmed (FIGS. 29a-29g).
# Histology. All tissues for histology were fixed at 4° C. for 2-3 days in 4% paraformaldehyde in PBS, embedded in paraffin and cut into 5-μm thick sections. Slides were deparaffinized with EZ-Prep (#05279771001, Ventana, Tucson, AZ) and then were antigen retrieved for 64 minutes with CC1 reagent (#950-500, Ventana, Tucson, AZ). Mouse anti-VPAC1 and anti-VPAC2 from Sigma Aldrich (St. Louis, MO) diluted at 1:500 or rabbit anti-cytokeratin-19 (Abcam, Cambridge, MA) diluted at 1:500 were applied and incubated for 40 minutes. DISCOVERY OmniMap anti-mouse or anti-rabbit HRP was applied and incubated for 12 minutes. The detection was completed in combination with DISCOVERY ChromoMap DAB kit as per manufacturer's recommendations. Pancreas harvested from mice with orthotopically implanted KPC-Luc tumors or colon, liver and inflated lungs harvested from naïve C57BL/6 mice receiving ANT008 or ANT308 were formalin-fixed and paraffin embedded before being stained with H&E (Leica 560 MX, Wetzlar, Germany) or Masson's Trichrome (Polyscientific Inc., Bay Shore, NY). All slides were dehydrated, cover-slipped and scanned on Hamamatsu Nanozoomer 2.0 HT at 40× and reviewed by a pathologist.
Sequence,lowest concentration of peptide that led to maximal luminescence [1] [µM],luc+ T cell proliferation [1],Median survival time [2] [days],Percentage alive day 60 [2] [%],"percentage of survival ([2]; FIG. 3, leukemia-bearing mice treated with peptide) [%]",H&E staining of colon and lung tissue [3],"overall survival, activity levels or weight of mice [3]",toxicity in C57BL/6 mice [3],clearance of C1498 leukemia and long-term survival ([2]; FIGS. 39 and 40)
KPRRPYTDNYTRLRKQMAVKKYLNLILN [ANT008],1,185% + 24%,35,16,16,did not show lymphocytic infiltrates or histopathology to suggest auto-immunity,did not affect,no adverse toxicity,
KPRRPYTSDYTRLRKQMAVKKYLNLILN [ANT308],3,109% + 8%,34,40,,did not show lymphocytic infiltrates or histopathology to suggest auto-immunity,did not affect,no adverse toxicity,dose-dependent clearance; also recorded: schedule-dependent clearance
